# According to US20210228463A1, “COMPOSITION FOR FAT FORMATION INHIBITION AND BODY FAT REDUCTION, CONTAINING HYDRANGENOL AS ACTIVE INGREDIENT” (COSMAX BIO CO., LTD., priority 2019, published 2021):
# Experiments:
# PPARγ = experiment: Western blotting of PPARγ expression in adipocytes; assay type: cell-based; settings: 3T3-L1 differentiated for 10 days, hydrangenol 2.5 ug/ml, 24 hours, FIG. 3
# Procedure: The mechanism of reducing triglyceride in adipocytes was examined for the hydrangenol-containing hydrangea (Hydrangea serrata) and hydrangenol. A pre-adipocyte 3T3-L1 was differentiated for 10 days and treated with hydrangea (Hydrangea serrata) (25 ug/ml) and hydrangenol (2.5 ug/ml) for 24 hours, respectively. Thereafter, the cells were lysed using a modified LIPA buffer, and each 20 ug thereof was used for analysis. p-mTOR(ab109268, Abcam), p-FOXO1(9461S, Cell Signaling), PPARγ(sc-7273, Santa Cruz), and β-actin(A5316, Sigma) primary antibodies were used for analysis, respectively.
# AMPK = experiment: Expression of p-AMPK protein in adipose and liver tissues by HG; assay type: in vivo, mice; settings: HG-treated group, Western blotting, FIG. 18
# Procedure: To analyze in vivo anti-obesity efficacy of HG, animal models of obesity were prepared. 8-week-old male C57BL/6N mice (SPF grade, 20±2 g, Orient Bio) were set into 7 groups as follows, and 10 mice per each group were tested: as normal control groups, normal mice (con) with no high fat diet and no administration, and obese mice (HFD) with induction of obesity by 30% high fat diet and no administration, and as a positive control group, obese mice with oral administration of orlistat which is an anti-obesity agent. As experimental groups, obese mice with oral administration of HG of 20 mg/kg, 40 mg/kg, or 80 mg/kg, and normal mice with oral administration of HG of 80 mg/kg were used. Mice were administered with HG at the same time with induction of obesity, and HG was administered for 5 days per week for 12 weeks. A dark: light cycle was maintained at intervals of 12 hours: 12 hours, and mice were allowed to free access to water. […]
# Specifically, adipose and liver tissues were mixed with a protein extraction solution, homogenized using a tissue homogenizer, and then centrifuged at 4° C., 15,000 rpm for 30 minutes to obtain a supernatant, and then a standard curve was created using the Bradford method to quantify protein. […]
# 3T3-L1 cells = experiment: Fat accumulation inhibition in adipocytes (Oil Red O staining); assay type: cell-based; settings: 3T3-L1 adipocytes, hydrangenol 2.5 ug/ml
# Procedure: In this experiment, to induce adipocyte differentiation, 3T3-L1 cells were dispensed onto a plate and cultured in a 10% BS medium until the cell density reached 100%. At the cell differentiation stage, hydrangenol-containing hydrangea (Hydrangea serrata) (25 ug/ml), hydrangenol (2.5 ug/ml) or a positive control pioglatazone (10 uM) was added to a 10% FBS differentiation medium (5 μg/ml of insulin, 1 μM dexametasone, 0.5 mM 3-isobutyl-1-methylxanthine), respectively. After 10 days of treatment oil Red-O staining and quantitative analysis were performed to determine how much fat accumulation was inhibited. For visual evaluation, images were taken after staining, and then the stained cells were completely dried, dissolved in dimethyl sulfoxide (DMSO), transferred to a 96-well plate, and absorbance at 450 nm was measured.
# [1] = Changes of blood triglyceride and blood cholesterol by WHS; assay type: in vivo; settings: blood, obese mice (HFD) + oral orlistat
# Procedure: (§1) To analyze in vivo anti-obesity efficacy of WHS, animal models of obesity were first prepared. 8-week-old male C57BL/6N mice (specific-pathogen-free (SPF) grade, 20±2 g, Orient Bio) were set into 7 groups as follows, and 10 mice per each group were tested: as normal control groups, normal mice (con) with no high fat diet and no administration, and obese mice (HFD) with induction of obesity by 30% high fat diet and no administration, and as a positive control group, obese mice with oral administration of orlistat which is an anti-obesity agent. As experimental groups, obese mice with oral administration of WHS of 75 mg/kg, 150 mg/kg, or 300 mg/kg, and normal mice with oral administration of WHS of 300 mg/kg were used. Further, experiments were performed by dividing mice into those which were administered with WHS for 12 weeks at the same time with induction of obesity, and those which were administered with WHS after induction of obesity for 10 weeks. WHS was orally administered for 5 days per week during the administration period. A dark: light cycle was maintained at intervals of 12 hours: 12 hours, and mice were allowed to free access to water. To analyze the effects of WHS on blood triglyceride and blood cholesterol, a hematological-biochemical test of the WHS-administered group with induction of obesity was performed using a biochemical analyzer (AU480 Chemistry Analyzer, Beckman coulter, Calif., USA).
# [2] = Effects of WHS on liver and kidney (serum GOT, GPT, BUN); assay type: in vivo; settings: obese mice (HFD) + oral orlistat
# Procedure: as §1, with “examine whether” for “analyze the effects of”, “induced liver and kidney damage in mice, glutamic oxalacetic transaminase (GOT), glutamic pyruvate transaminase (GPT),” for “on blood triglyceride”, “urea nitrogen (BUN)” for “cholesterol, a hematological-biochemical test”, “were measured by serum analysis” for “was performed”
Compound,expression level of peroxisome proliferator-activated receptor gamma y (PPAR) (PPARγ),amount of phosphorylated AMPK protein (AMPK),triglyceride production in adipocytes (3T3-L1 cells),CHOL [1],HDL [1],LDL [1],TG [1],BUN [2],GOT [2],GPT [2]
"O=C1OC(c2ccc(O)cc2)Cc2cccc(O)c21 (stereo not shown) [HG, 8-hydroxy-3-(4-hydroxyphenyl)-3,4-dihydroisochromen-1-one]",reduction,increased,suppressed,–,–,–,–,–,–,–
"CCCCCCCCCCC[C@@H](C[C@@H]1OC(=O)[C@H]1CCCCCC)OC(=O)[C@H](CC(C)C)NC=O [Orlistat, orlistat]",–,–,–,115.63 mg/dL,83.70 mg/dL,8.60 mg/dL,76.40 mg/dL,19.89 mg/dL,63 U/L,17.6 U/L
